Reference: patent US10765114B2, “4-amino-6-(pyridyl and 2-substitutedphenyl)-picolinates and 6-amino-2-(pyridyl and 2-substitutedphenyl)-pyrimidine-4-carboxylates and their use as herbicides” (Dow AgroSciences LLC, priority 2013, dated 2020)

These molecules were tested on Key Broadleaf Weed and Crop Species (assay: Post-Emergent Test II (Table 5)). Settings: Abutilon theophrasti, post-emergence, 336 h, ABUTH: velvetleaf (Abutilon theophrasti), application rate 70 (kg ai/ha; footnote: g ai/ha), read-out: Visual Growth Reduction (%) 14 Days After Application ABUTH.
Type: in vivo
Procedure, shortened: (§1)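 Growth stage at treatment: first or second true leaf. Application: compound in acetone/DMSO diluted into an adjuvant-containing aqueous mix, sprayed at 187 L/ha at several rates. Assessment: visual 0-100% injury at 14 days against untreated plants.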

Compound | pest or weed control at 70 g/ha [%]
COc1c(-c2cc(N)c(Cl)c(C(=O)O)n2)ccc(Cl)c1F [Compound 84, 4-amino-3-chloro-6-(4-chloro-3-fluoro-2-methoxyphenyl)picolinic acid] | 95 to 100

Same assay, conditions: Abutilon theophrasti, post-emergence, 336 h, ABUTH: velvetleaf (Abutilon theophrasti), application rate 140 (kg ai/ha; footnote: g ai/ha), read-out: Visual Growth Reduction (%) 14 Days After Application ABUTH

Compound | pest or weed control at 140 g/ha [%]
COc1c(-c2cc(N)c(Cl)c(C(=O)O)n2)ccc(Cl)c1F [Compound 84, 4-amino-3-chloro-6-(4-chloro-3-fluoro-2-methoxyphenyl)picolinic acid] | 95 to 100

Same assay, conditions: Amaranthus retroflexus, post-emergence, 336 h, AMARE: redroot pigweed (Amaranthus retroflexus), application rate 70 (kg ai/ha; footnote: g ai/ha), read-out: Visual Growth Reduction (%) 14 Days After Application AMARE

Compound | pest or weed control at 70 g/ha [%]
COc1c(-c2cc(N)c(Cl)c(C(=O)O)n2)ccc(Cl)c1F [Compound 84, 4-amino-3-chloro-6-(4-chloro-3-fluoro-2-methoxyphenyl)picolinic acid] | 95 to 100

Same assay, conditions: Amaranthus retroflexus, post-emergence, 336 h, AMARE: redroot pigweed (Amaranthus retroflexus), application rate 140 (kg ai/ha; footnote: g ai/ha), read-out: Visual Growth Reduction (%) 14 Days After Application AMARE

Compound | pest or weed control at 140 g/ha [%]
COc1c(-c2cc(N)c(Cl)c(C(=O)O)n2)ccc(Cl)c1F [Compound 84, 4-amino-3-chloro-6-(4-chloro-3-fluoro-2-methoxyphenyl)picolinic acid] | 95 to 100

Same assay, conditions: Brassica napus, post-emergence, 336 h, BRSSS: oilseed rape, canola (Brassica napus), application rate 70 (kg ai/ha; footnote: g ai/ha), read-out: Visual Growth Reduction (%) 14 Days After Application BRSSS

Compound | pest or weed control at 70 g/ha [%]
COc1c(-c2cc(N)c(Cl)c(C(=O)O)n2)ccc(Cl)c1F [Compound 84, 4-amino-3-chloro-6-(4-chloro-3-fluoro-2-methoxyphenyl)picolinic acid] | 95 to 100

Same assay, conditions: Brassica napus, post-emergence, 336 h, BRSSS: oilseed rape, canola (Brassica napus), application rate 140 (kg ai/ha; footnote: g ai/ha), read-out: Visual Growth Reduction (%) 14 Days After Application BRSSS

Compound | pest or weed control at 140 g/ha [%]
COc1c(-c2cc(N)c(Cl)c(C(=O)O)n2)ccc(Cl)c1F [Compound 84, 4-amino-3-chloro-6-(4-chloro-3-fluoro-2-methoxyphenyl)picolinic acid] | 95 to 100

Same assay, conditions: Chenopodium album, post-emergence, 336 h, CHEAL: lambsquarters (Chenopodium album), application rate 70 (kg ai/ha; footnote: g ai/ha), read-out: Visual Growth Reduction (%) 14 Days After Application CHEAL

Compound | pest or weed control at 70 g/ha [%]
COc1c(-c2cc(N)c(Cl)c(C(=O)O)n2)ccc(Cl)c1F [Compound 84, 4-amino-3-chloro-6-(4-chloro-3-fluoro-2-methoxyphenyl)picolinic acid] | 95 to 100

Same assay, conditions: Chenopodium album, post-emergence, 336 h, CHEAL: lambsquarters (Chenopodium album), application rate 140 (kg ai/ha; footnote: g ai/ha), read-out: Visual Growth Reduction (%) 14 Days After Application CHEAL

Compound | pest or weed control at 140 g/ha [%]
COc1c(-c2cc(N)c(Cl)c(C(=O)O)n2)ccc(Cl)c1F [Compound 84, 4-amino-3-chloro-6-(4-chloro-3-fluoro-2-methoxyphenyl)picolinic acid] | 95 to 100

Same assay, conditions: Euphorbia heterophylla, post-emergence, 336 h, EPHHL: wild poinsettia (Euphorbia heterophylla), application rate 70 (kg ai/ha; footnote: g ai/ha), read-out: Visual Growth Reduction (%) 14 Days After Application EPHHL

Compound | pest or weed control at 70 g/ha [%]
COc1c(-c2cc(N)c(Cl)c(C(=O)O)n2)ccc(Cl)c1F [Compound 84, 4-amino-3-chloro-6-(4-chloro-3-fluoro-2-methoxyphenyl)picolinic acid] | 0 to 29

Same assay, conditions: Euphorbia heterophylla, post-emergence, 336 h, EPHHL: wild poinsettia (Euphorbia heterophylla), application rate 140 (kg ai/ha; footnote: g ai/ha), read-out: Visual Growth Reduction (%) 14 Days After Application EPHHL

Compound | pest or weed control at 140 g/ha [%]
COc1c(-c2cc(N)c(Cl)c(C(=O)O)n2)ccc(Cl)c1F [Compound 84, 4-amino-3-chloro-6-(4-chloro-3-fluoro-2-methoxyphenyl)picolinic acid] | 0 to 29

Same assay, conditions: Helianthus annuus, post-emergence, 336 h, HELAN: sunflower (Helianthus annuus), application rate 70 (kg ai/ha; footnote: g ai/ha), read-out: Visual Growth Reduction (%) 14 Days After Application HELAN

Compound | pest or weed control at 70 g/ha [%]
COc1c(-c2cc(N)c(Cl)c(C(=O)O)n2)ccc(Cl)c1F [Compound 84, 4-amino-3-chloro-6-(4-chloro-3-fluoro-2-methoxyphenyl)picolinic acid] | 85 to 94

Same assay, conditions: Helianthus annuus, post-emergence, 336 h, HELAN: sunflower (Helianthus annuus), application rate 140 (kg ai/ha; footnote: g ai/ha), read-out: Visual Growth Reduction (%) 14 Days After Application HELAN

Compound | pest or weed control at 140 g/ha [%]
COc1c(-c2cc(N)c(Cl)c(C(=O)O)n2)ccc(Cl)c1F [Compound 84, 4-amino-3-chloro-6-(4-chloro-3-fluoro-2-methoxyphenyl)picolinic acid] | 85 to 94

Same assay, conditions: Viola tricolor, post-emergence, 336 h, VIOTR: wild pansy (Viola tricolor), application rate 70 (kg ai/ha; footnote: g ai/ha), read-out: Visual Growth Reduction (%) 14 Days After Application VIOTR

Compound | pest or weed control at 70 g/ha [%]
COc1c(-c2cc(N)c(Cl)c(C(=O)O)n2)ccc(Cl)c1F [Compound 84, 4-amino-3-chloro-6-(4-chloro-3-fluoro-2-methoxyphenyl)picolinic acid] | 95 to 100

Same assay, conditions: Viola tricolor, post-emergence, 336 h, VIOTR: wild pansy (Viola tricolor), application rate 140 (kg ai/ha; footnote: g ai/ha), read-out: Visual Growth Reduction (%) 14 Days After Application VIOTR

Compound | pest or weed control at 140 g/ha [%]
COc1c(-c2cc(N)c(Cl)c(C(=O)O)n2)ccc(Cl)c1F [Compound 84, 4-amino-3-chloro-6-(4-chloro-3-fluoro-2-methoxyphenyl)picolinic acid] | 95 to 100

These molecules were tested on Key Grass and Sedge Weeds as well as Grass Crops (assay: Post-Emergent Test II (Table 6)). Settings: post-emergence, 336 h, CYPSS, 70 g ai/ha, 14 days after application, read-out: Visual Growth Reduction (%) 14 Days After Application CYPSS.
Type: in vivo
Procedure, shortened: as §1

Compound | pest or weed control at 70 g/ha [%]
COc1c(-c2cc(N)c(Cl)c(C(=O)O)n2)ccc(Cl)c1F [Compound 84, 4-amino-3-chloro-6-(4-chloro-3-fluoro-2-methoxyphenyl)picolinic acid] | 0 to 29

Same assay, conditions: post-emergence, 336 h, CYPSS, 140 g ai/ha, 14 days after application, read-out: Visual Growth Reduction (%) 14 Days After Application CYPSS

Compound | pest or weed control at 140 g/ha [%]
COc1c(-c2cc(N)c(Cl)c(C(=O)O)n2)ccc(Cl)c1F [Compound 84, 4-amino-3-chloro-6-(4-chloro-3-fluoro-2-methoxyphenyl)picolinic acid] | 0 to 29

Same assay, conditions: post-emergence, 336 h, DIGSA: crabgrass (Digitaria sanguinalis), 70 g ai/ha, 14 days after application, read-out: Visual Growth Reduction (%) 14 Days After Application DIGSA

Compound | pest or weed control at 70 g/ha [%]
COc1c(-c2cc(N)c(Cl)c(C(=O)O)n2)ccc(Cl)c1F [Compound 84, 4-amino-3-chloro-6-(4-chloro-3-fluoro-2-methoxyphenyl)picolinic acid] | 0 to 29

Same assay, conditions: post-emergence, 336 h, DIGSA: crabgrass (Digitaria sanguinalis), 140 g ai/ha, 14 days after application, read-out: Visual Growth Reduction (%) 14 Days After Application DIGSA

Compound | pest or weed control at 140 g/ha [%]
COc1c(-c2cc(N)c(Cl)c(C(=O)O)n2)ccc(Cl)c1F [Compound 84, 4-amino-3-chloro-6-(4-chloro-3-fluoro-2-methoxyphenyl)picolinic acid] | 0 to 29

Same assay, conditions: post-emergence, 336 h, ECHSS, 70 g ai/ha, 14 days after application, read-out: Visual Growth Reduction (%) 14 Days After Application ECHSS

Compound | pest or weed control at 70 g/ha [%]
COc1c(-c2cc(N)c(Cl)c(C(=O)O)n2)ccc(Cl)c1F [Compound 84, 4-amino-3-chloro-6-(4-chloro-3-fluoro-2-methoxyphenyl)picolinic acid] | 0 to 29

Same assay, conditions: post-emergence, 336 h, ECHSS, 140 g ai/ha, 14 days after application, read-out: Visual Growth Reduction (%) 14 Days After Application ECHSS

Compound | pest or weed control at 140 g/ha [%]
COc1c(-c2cc(N)c(Cl)c(C(=O)O)n2)ccc(Cl)c1F [Compound 84, 4-amino-3-chloro-6-(4-chloro-3-fluoro-2-methoxyphenyl)picolinic acid] | 0 to 29

Same assay, conditions: post-emergence, 336 h, ORYSS (crop), 70 g ai/ha, 14 days after application, read-out: Visual Growth Reduction (%) 14 Days After Application ORYSS

Compound | pest or weed control at 70 g/ha [%]
COc1c(-c2cc(N)c(Cl)c(C(=O)O)n2)ccc(Cl)c1F [Compound 84, 4-amino-3-chloro-6-(4-chloro-3-fluoro-2-methoxyphenyl)picolinic acid] | 0 to 29

Same assay, conditions: post-emergence, 336 h, ORYSS (crop), 140 g ai/ha, 14 days after application, read-out: Visual Growth Reduction (%) 14 Days After Application ORYSS

Compound | pest or weed control at 140 g/ha [%]
COc1c(-c2cc(N)c(Cl)c(C(=O)O)n2)ccc(Cl)c1F [Compound 84, 4-amino-3-chloro-6-(4-chloro-3-fluoro-2-methoxyphenyl)picolinic acid] | 0 to 29

Same assay, conditions: post-emergence, 336 h, SETFA: giant foxtail (Setaria faberi), 70 g ai/ha, 14 days after application, read-out: Visual Growth Reduction (%) 14 Days After Application SETFA

Compound | pest or weed control at 70 g/ha [%]
COc1c(-c2cc(N)c(Cl)c(C(=O)O)n2)ccc(Cl)c1F [Compound 84, 4-amino-3-chloro-6-(4-chloro-3-fluoro-2-methoxyphenyl)picolinic acid] | 0 to 29

Same assay, conditions: post-emergence, 336 h, SETFA: giant foxtail (Setaria faberi), 140 g ai/ha, 14 days after application, read-out: Visual Growth Reduction (%) 14 Days After Application SETFA

Compound | pest or weed control at 140 g/ha [%]
COc1c(-c2cc(N)c(Cl)c(C(=O)O)n2)ccc(Cl)c1F [Compound 84, 4-amino-3-chloro-6-(4-chloro-3-fluoro-2-methoxyphenyl)picolinic acid] | 0 to 29

Same assay, conditions: post-emergence, 336 h, SORVU: grain sorghum (Sorghum vulgare), 70 g ai/ha, 14 days after application, read-out: Visual Growth Reduction (%) 14 Days After Application SORVU

Compound | pest or weed control at 70 g/ha [%]
COc1c(-c2cc(N)c(Cl)c(C(=O)O)n2)ccc(Cl)c1F [Compound 84, 4-amino-3-chloro-6-(4-chloro-3-fluoro-2-methoxyphenyl)picolinic acid] | 0 to 29

Same assay, conditions: post-emergence, 336 h, SORVU: grain sorghum (Sorghum vulgare), 140 g ai/ha, 14 days after application, read-out: Visual Growth Reduction (%) 14 Days After Application SORVU

Compound | pest or weed control at 140 g/ha [%]
COc1c(-c2cc(N)c(Cl)c(C(=O)O)n2)ccc(Cl)c1F [Compound 84, 4-amino-3-chloro-6-(4-chloro-3-fluoro-2-methoxyphenyl)picolinic acid] | 0 to 29

Same assay, conditions: post-emergence, 336 h, TRZSS (crop), 70 g ai/ha, 14 days after application, read-out: Visual Growth Reduction (%) 14 Days After Application TRZSS

Compound | pest or weed control at 70 g/ha [%]
COc1c(-c2cc(N)c(Cl)c(C(=O)O)n2)ccc(Cl)c1F [Compound 84, 4-amino-3-chloro-6-(4-chloro-3-fluoro-2-methoxyphenyl)picolinic acid] | 0 to 29

Same assay, conditions: post-emergence, 336 h, TRZSS (crop), 140 g ai/ha, 14 days after application, read-out: Visual Growth Reduction (%) 14 Days After Application TRZSS

Compound | pest or weed control at 140 g/ha [%]
COc1c(-c2cc(N)c(Cl)c(C(=O)O)n2)ccc(Cl)c1F [Compound 84, 4-amino-3-chloro-6-(4-chloro-3-fluoro-2-methoxyphenyl)picolinic acid] | 0 to 29

Same assay, conditions: post-emergence, 336 h, ZEAMX: maize, corn (Zea mays), 70 g ai/ha, 14 days after application, read-out: Visual Growth Reduction (%) 14 Days After Application ZEAMX

Compound | pest or weed control at 70 g/ha [%]
COc1c(-c2cc(N)c(Cl)c(C(=O)O)n2)ccc(Cl)c1F [Compound 84, 4-amino-3-chloro-6-(4-chloro-3-fluoro-2-methoxyphenyl)picolinic acid] | 0 to 29

Same assay, conditions: post-emergence, 336 h, ZEAMX: maize, corn (Zea mays), 140 g ai/ha, 14 days after application, read-out: Visual Growth Reduction (%) 14 Days After Application ZEAMX

Compound | pest or weed control at 140 g/ha [%]
COc1c(-c2cc(N)c(Cl)c(C(=O)O)n2)ccc(Cl)c1F [Compound 84, 4-amino-3-chloro-6-(4-chloro-3-fluoro-2-methoxyphenyl)picolinic acid] | 0 to 29
